# Measurements reported in patent US20090304756A1, “Method for the Encapsulation and Controlled Release of Poorly Water-Soluble (Hyprophobic) Liquid and Solid Active Ingredients” (priority 2005, published 2009).
# What was measured:
# [1] = Perylene concentration in particle interior by confocal fluorescence microscopy; assay type: physicochemical; conditions: C18 silica templates 5 μm, pore 6 nm, PAH/PSS LbL coated; self-quenching may feign lower concentration
# Description: 12.5 mg of the model dye perylene were dissolved in 6 ml of chloroform. A suspension of 100 mg of spherical, porous silica templates (diameter 5 μm, pore size 6 nm) in 1 ml of chloroform was added thereto. The surface of the templates is hydrophobically modified with C18 alkyl chains (RP 18, chromatography material). The solvent was evaporated at 40° C. in a drying cabinet with stirring. The powder which remained was resuspended in water with the help of 1% sodium dodecyl sulphate (SDS). […] Besides the fluorescence of the perylene in the particles, a few larger (and lighter) crystals of the pure dye can also be seen which no longer arise when using smaller fill amounts. The SDS solution was centrifuged off and the particles were incubated with 500 μl of a solution of 1 g/l Cy5 labelled poly(allylamine hydrochloride) (PAH-Cy5, MW 70000 g/mol), pH 6.5 and 0.5 M NaCl for 20 min with brief application of ultrasound. After washing the particles three times with water, 500 μl of a solution of 1 g/l of poly(sodium 4-styrenesulphonate) (PSS, MW 70000 g/mol) in 0.5 M NaCl with pH 6.1 are added. […]
# The concentration of the perylene in the interior of the particles was determined via the fluorescence by confocal microscopy by reference to comparison solutions. […]
# [2] = Amount of imidacloprid in particles, release into excess methanol with UV/vis analysis of supernatant; assay type: physicochemical; conditions: silica templates 5 μm, pore 6 nm, PSS/PAH coated; released in large excess of methanol
# Description: 25 mg of the somewhat water-soluble active ingredient imidacloprid were dissolved in 3 ml of acetone, and 100 mg of spherical, porous silica templates (diameter 5 μm, pore size 6 nm) were added. After incubation for 30 min, water was added stepwise until the solution reached saturation of imidacloprid, evident from further considerable cloudiness. The supernatant was centrifuged off and the particles were suspended with 1% SDS solution. In this connection, here and in all of the following washing and coating solutions, imidacloprid saturated solutions were used in order to prevent a dissolving out from the particles. After the coating with PSS and PAH (analogously to Example 1), separate particles filled with 15% m/m (mass of imidacloprid/mass of particles) were obtained (FIG. 3). The amount of imidacloprid was determined by releasing the active ingredient in a large excess in methanol with subsequent UV/vis spectroscopic analysis of the supernatant.
SMILES,concentration of perylene in the interior of the particles [1],filling (mass of imidacloprid/mass of particles) [2] [% m/m]
c1cc2cccc3c4cccc5cccc(c(c1)c23)c54 [perylene],8.5 mg of perylene per 100 mg of particles,–
O=[N+]([O-])NC1=NCCN1Cc1ccc(Cl)nc1 [imidacloprid],–,15
